Results: patent US8618086B2, “Compositions and methods for treating hair loss using C16-C20 aromatic tetrahydro prostaglandins” (Duke University, priority 2000, dated 2013)

Experiments:
[1] = molecular target: T1, hFP receptor (hFP membrane from transfected COS-7 cells) (Homo sapiens, UniProt P43088); assay: Radioligand Binding Assay; settings: competition with (3H) PGF2 on hFP membrane; read-out: IC50 the PGF
T1 construct: expressed in transfected cells; host or cells: COS-7 cells (transient transfection, LipofectAMINE); membrane preparation
Procedure: IC50 of a PGF can be determined relative to PGF2α using the Radioligand Binding Assay. As a control, the IC50 for PGF2α itself should be no lower than 1.0 nM and no higher than 5.0 nM.
In this assay, COS-7 cells are transiently transfected with the hFP recombinant plasmid using LipofectAMINE Reagent. Forty-eight hours later, the transfected cells are washed with Hank's Balanced Salt Solution (HBSS, without CaCl2, MgCl2, MgSO4, or phenol red). The cells are detached with versene, and HBSS is added. The mixture is centrifuged at 200 g for 10 minutes, at 4° C. to pellet the cells. The pellet is resuspended in Phosphate-Buffered Saline-EDTA buffer (PBS; 1 mM EDTA; pH 7.4; 4° C.). The cells are disrupted by nitrogen cavitation (Parr model 4639), at 800 psi, for 15 minutes at 4° C. The mixture is centrifuged at 1000 g for 10 minutes at 4° C. The supernatant is centrifuged at 100,000 g for 60 minutes at 4° C. The pellet is resuspended to 1 mg protein/mL TME buffer (50 mM Tris; 10 mM MgCl2; 1 mM EDTA; pH 6.0; 4° C.) based on protein levels measured using the Pierce BCA Protein Assay kit. The homogenate is mixed for 10 seconds using a Kinematica POLYTRON® (available from KINEMATICA AG, Luzernerstrasse 147A CH-6014 Littau, Switzerland). The membrane preparations are then stored at −80° C., until thawed for assay use.
The receptor competition binding assays are developed in a 96 well format. Each well contains […] of hFP membrane, 5 nM (3H) PGF2, and the various competing compounds in a total volume of […]. The plates are incubated at 23° C. for 1 hour. The incubation is terminated by rapid filtration using the Packard Filtermate 196 harvester through Packard UNIFILTER® GF/B filters (available from Packard Instrument Co., Inc. of Downers Grove Ill.) pre-wetted with TME buffer. The filter is washed four times with TME buffer. […] The plates are read on a Packard TOPCOUNT® Microplate Scintillation Counter (also available from Packard Instrument Co., Inc.)

[2] = tested on: C3H mice (conversion from telogen to anagen, skin color grade); assay: Telogen Conversion Assay; assay type: in vivo; settings: topical; for Average Grades, 23 Days: visual skin color grade 0 (whitish) to 4 (dark blue, full anagen), average of 7 mice after 23 days
Procedure: PGF's are tested for their potential to grow hair using the Telogen Conversion Assay. The Telogen Conversion Assay measures the potential of a PGF to convert mice in the resting stage of the hair growth cycle (“telogen”), to the growth stage of the hair growth cycle (“anagen”).
Without intending to be limited by theory, there are three principal phases of the hair growth cycle: anagen, catagen, and telogen. It is believed that there is a longer telogen period in C3H mice (Harlan Sprague Dawley, Inc., Indianapolis, Ind.) from approximately 40 days of age until about 75 days of age, when hair growth is synchronized. It is believed that after 75 days of age, hair growth is no longer synchronized. Wherein about 40 day-old mice with dark fur (brown or black) are used in hair growth experiments, melanogenesis occurs along with hair (fur) growth wherein the topical application of hair growth inducers are evaluated. The Telogen Conversion Assay herein is used to screen PGF's for potential hair growth by measuring melanogenesis.
Three groups of 44 day-old C3H mice are used: a vehicle control group, a positive control group, and a test PGF group, wherein the test PGF group is administered a PGF used in the method of this invention. The length of the assay is 24 days with 15 treatment days (wherein the treatment days occur Mondays through Fridays). Day 1 is the first day of treatment. Typical dosage concentrations are set forth in Table 1, however the skilled artisan will readily understand that such concentrations may be modified.
The mice are treated topically Monday through Friday on their lower back (base of tail to the lower rib). A pipettor and tip are used to deliver 400 μL to each mouse's back. The 400 μL application is applied slowly while moving hair on the mouse to allow the application to reach the skin.
While each treatment is being applied to the mouse topically, a visual grade of from 0 to 4 will be given to the skin color in the application area of each animal. As a mouse converts from telogen to anagen, its skin color will become more bluish-black.

T1 sequence (P43088 whole entry): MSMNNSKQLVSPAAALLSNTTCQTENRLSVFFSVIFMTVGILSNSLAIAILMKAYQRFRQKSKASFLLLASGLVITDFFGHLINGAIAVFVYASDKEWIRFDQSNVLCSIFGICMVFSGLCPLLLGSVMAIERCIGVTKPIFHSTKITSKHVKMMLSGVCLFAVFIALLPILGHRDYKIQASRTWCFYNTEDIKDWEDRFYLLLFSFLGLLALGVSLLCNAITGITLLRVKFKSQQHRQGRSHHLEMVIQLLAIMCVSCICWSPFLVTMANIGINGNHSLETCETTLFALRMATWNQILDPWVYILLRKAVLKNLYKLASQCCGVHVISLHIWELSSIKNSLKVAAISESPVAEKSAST

IC50 [1] [nM]	Structure (SMILES)	hair growth (result in words) [2]	Average Grades, 23 Days [2]	Average Grades, 25 Days ([2]; visual skin color grade 0 to 4, average of 7 mice after 25 days)	Average Grades, 26 Days ([2]; visual skin color grade 0 to 4, average of 7 mice after 26 days)
10	O=C(O)CCCCCC[C@@H]1[C@@H](CCC(O)CSc2ccccc2F)[C@H](O)C[C@@H]1O (stereo partly drawn) [Example 3-2]				
7	O=C(O)CCCCCC[C@@H]1[C@@H](CCC(O)CSc2cccc(F)c2)[C@H](O)C[C@@H]1O (stereo partly drawn) [Example 3-1]				
	CC(C)OC(=O)CCCCCC[C@@H]1[C@@H](CCC(O)CSc2ccccc2)[C@H](O)C[C@@H]1O (stereo partly drawn) [Example 1]	grew hair	0.4	0.1	0.7
	COC(=O)CCCCCC[C@@H]1[C@@H](CCC(O)CSc2ccccc2Br)[C@H](O)C[C@@H]1O (stereo partly drawn) [Example 2]	grew hair	0.1		
24	CC(O)(CC[C@@H]1[C@@H](CCCCCCC(=O)O)[C@@H](O)C[C@H]1O)CSc1ccccc1 (stereo partly drawn) [Example 3-3]				
